Laboratory results reported in US7192928B1, “T cell antigen receptor peptides” (Northern Sydney & Central Coast Area Health Services, priority 1996, dated 2007).
Several values for one entry are separate records, joined by “and”; a condition that tells them apart may be missing. Equal values may be shown once. Read-outs that look alike come from different tables or passages of the source. Marks after values point to notes of the source that are not given here.

Tests used:
[1] = test system: rat primed lymph node cells (PLNC); conditions: for effect on antigen-stimulated T-cell proliferation: PLNC Experiment 2, FIG. 3, peptides alone and in combination; for inhibition of antigen-stimulated T-cell proliferation, overall statement: PLNCs and T-cell lines, summary over experiments
[2] = test system: rat T-cell line specific to MTB; assay: Antigen-stimulated proliferation of MTB-specific T-cell line (3H-thymidine incorporation); type: cell-based; conditions: for counts relative to vehicle control / effect on T-cell proliferation: 100 μM
[3] = test system: adjuvant induced arthritis in rats; assay: Adjuvant-induced arthritis in rats; type: in vivo, rat; conditions: for Summary of in vivo adjuvant induced arthritis results: TREATMENT: 7 mg peptide with 1 mg MTB, rats with arthritis/rats in group; for efficacy against MTB-induced arthritis: section (ii); for efficacy against MTB-induced arthritis / rats with mild disease / minor symptoms / rats showing no symptoms of arthritis: 7 mg peptide; for effectiveness in adjuvant induced arthritis model, summary statement: summary of Table 4; for rats showing no symptoms of arthritis: duration of the experiment
[4] = Solubility of the peptides in stock solutions; type: physicochemical; conditions: for appearance of peptide stock solution: stock solutions 1 mg/ml or 1 mM
Procedure: The solubility of the peptides was variable. At the concentration of the stock solutions, 1 mg/ml or 1 mM, most peptide solutions looked clear. […] Therefore, the true concentration of peptides in solution in the culture wells would be less than those nominated in the case of these partially soluble peptides. Core peptide could be dissolved at 2 mg/ml, but was not completely soluble at 5 mg/ml. […] The vehicle for the peptides, except M and N, was 0.1% acetic acid which gave 0.01%, i.e., 1.75 mM in the wells. […] In these experiments, effects of peptides could still be determined by comparison with the vehicle control. The 0.05M sodium carbonate buffer, used to dissolve peptides M and N, was not as detrimental to line T-cells as acetic acid.

[5] = T-Cell Line Experiment 2, FIG. 5
[6] = peptides 7 mg/rat, CS 50 mg/kg, DXM 2 mg/kg
[7] = section (i), summary of Table 3 experiments
[8] = PLNC Experiment 1, FIG. 2, peptide 100 μg/ml
[9] = section (iii), 5 rats per group
[10] = respective buffers (0.1% acetic acid; 0.05M sodium carbonate for M and N)

H-GLRILLLKV-OH [CP, G L R I L L L K V]
degree of inhibition of antigen-stimulated T-cell proliferation [1]: 50-9096%
inhibition at different concentrations in the wells ([1]; 20 μl of 1, 2 or 5 mg/ml stock added to the wells (0.1, 0.2, 0.5 mg/ml)): 0.2 mg/ml CP was more inhibitory than 0.1 mg/ml and 0.5 mg/ml was less effective
counts relative to the vehicle control (T-cell proliferation) ([1]; PLNC Experiment 1, FIG. 2, peptide 100 μg/ml, MTB 100 μg/ml): approximately 10%
effect on antigen-stimulated T-cell proliferation [1]: reduced antigen-stimulated T-cell proliferation, whether freshly dissolved or stored for more than three months at 4 °C
inhibition of antigen-stimulated T-cell proliferation, overall statement [1]: most effective
inhibition of antigen-stimulated T-cell proliferation, overall statement ([1]; listed as core peptide): effective at inhibiting antigen-stimulated T-cell proliferation
proliferation reduced by ([1]; first experiment): go
counts (tritiated thymidine incorporation) ([2]; T-Cell Line Experiment 1, FIG. 4, 100 μg/ml, vehicle control approximately 30000): approximately 18000 cpm
counts relative to the control level ([2]; T-Cell Line Experiment 1, FIG. 4, 200 μg/ml): about 25%
counts relative to vehicle control [2, 5]: approximately 33%
counts relative to the control ([2]; T-Cell Line Experiment 2, FIG. 5, 200 μM): ~16%
animals with no evidence of arthritis ([3]; first experiment, three rats per group, after 18 days, suspended in adjuvant, base of tail): 2/3
EFFECT on adjuvant induced arthritis [3, 6]: Protective
EFFECT on adjuvant induced arthritis [3, 7]: Best results

H-LDILLLEV-OH [E, L D I L L L E V]
EFFECT on adjuvant induced arthritis [3, 6]: No effect
EFFECT on adjuvant induced arthritis [3, 7]: no effect

H-LGILLLGV-OH [C, L G I L L L G V]
EFFECT on adjuvant induced arthritis [3, 6]: No effect
EFFECT on adjuvant induced arthritis [3, 7]: no effect

H-YGRADCGITS-OH [Peptide J, Y G R A D G G I T S]
Summary of in vivo adjuvant induced arthritis results: TREATMENT [3]: 3/10*
efficacy against MTB-induced arthritis [3]: comparable in efficacy
effectiveness in adjuvant induced arthritis model, summary statement [3]: very effective

H-LLMTLRLWSS-OH [Peptide P, L L M T L R L W S S]
effect on T-cell proliferation [1, 8]: most inhibitory
effect on antigen-stimulated T-cell proliferation [1]: showed activity
effect on T-cell proliferation [2, 5]: marginal effect
appearance of peptide stock solution [4]: turbid or had undissolved particles
Summary of in vivo adjuvant induced arthritis results: TREATMENT [3]: 0/5
rats that developed minor symptoms ([3]; Table 4, of 5 treated rats): (4 developed minor symptoms)
protection ([3]; section (iii)): protective to a variable extent
rats with mild disease / minor symptoms [3, 9]: four
rats showing no symptoms of arthritis [3, 9]: one
effectiveness in adjuvant induced arthritis model, summary statement [3]: variable response in the delay of disease induction and severity

H-IVIVDICIT-OH [Peptide L, I V I V D I C I T]
Summary of in vivo adjuvant induced arthritis results: TREATMENT [3]: 0/5*
weight loss ([3]; section (iv), FIG. 10, 7 mg peptide L, five rats): none of the peptide L treated group lost weight
paw and ankle thickness ([3]; section (iv), FIG. 11(a–d), 7 mg peptide L): significantly decreased compared to control
effectiveness in adjuvant induced arthritis model, summary statement [3]: very effective

H-FLFAEIVSI-OH [Peptide N, F L F A E I V S I]
effect on antigen-stimulated T-cell proliferation [1]: did not reduce proliferation
effect on T-cell proliferation [2, 5]: no effects
solubility in words [4, 10]: soluble in their respective buffers
Summary of in vivo adjuvant induced arthritis results: TREATMENT [3]: 0/5*
protection ([3]; section (iii)): protective to a variable extent
rats showing no symptoms of arthritis [3, 9]: All five
effectiveness in adjuvant induced arthritis model, summary statement [3]: very effective

C[C@@H]1C[C@H]2[C@@H]3CCC4=CC(=O)C=C[C@]4(C)[C@@]3(F)[C@@H](O)C[C@]2(C)[C@@]1(O)C(=O)CO [DXM*, dexamethasone, reference compound]
EFFECT on adjuvant induced arthritis [3, 6]: No effect+

H-LRILLLGV-OH [Peptide H, L R I L L L G V]
effect on T-cell proliferation [1, 8]: appeared to reduce T-cell proliferation
counts relative to vehicle control [2, 5]: 66%
appearance of peptide stock solution [4]: turbid or had undissolved particles
EFFECT on adjuvant induced arthritis [3, 6]: Protective

H-SSDVPCDATLT-OH [K, S S D V P C D A T L T]
solubility in words [4, 10]: soluble in their respective buffers
Summary of in vivo adjuvant induced arthritis results: TREATMENT [3]: 5/10
efficacy against MTB-induced arthritis [3]: comparable in efficacy
effectiveness in adjuvant induced arthritis model, summary statement [3]: variable response in the delay of disease induction and severity

H-MGLRILLL-OH [Peptide A, M G L R I L L L]
EFFECT on adjuvant induced arthritis [3, 6]: Protective

H-LGILLLKV-OH [I, L G I L L L K V]
appearance of peptide stock solution [4]: turbid or had undissolved particles
EFFECT on adjuvant induced arthritis [3, 6]: Protective

H-IIVTDVIATL-OH [Peptide M, I I V T D V I A T L]
effect on antigen-stimulated T-cell proliferation [1]: did not reduce proliferation
effect on T-cell proliferation [2, 5]: no effects
solubility in words [4]: soluble in their respective buffers
Summary of in vivo adjuvant induced arthritis results: TREATMENT [3]: 2/5
protection ([3]; section (iii)): protective to a variable extent
rats with mild disease / minor symptoms [3, 9]: Two
rats showing no symptoms of arthritis [3, 9]: One
rats of the group killed ([3]; section (iii), 5 rats per group, on days 19 and 21): 2
effectiveness in adjuvant induced arthritis model, summary statement [3]: variable response in the delay of disease induction and severity

H-AGFNLLMT-OH [Peptide O, A G F N L L M T]
appearance of peptide stock solution [4]: turbid or had undissolved particles
Summary of in vivo adjuvant induced arthritis results: TREATMENT [3]: 1/10*
efficacy against MTB-induced arthritis [3]: most effective at ameliorating the development of MTB-induced arthritis
effectiveness in adjuvant induced arthritis model, summary statement [3]: very effective

H-ILLLKVAG-OH [B, I L L L K V A G]
EFFECT on adjuvant induced arthritis [3, 6]: Protective
EFFECT on adjuvant induced arthritis [3, 7]: Best results
